Data on 13 molecules can be found in patent publication US20240391931A1 (Bristol-Myers Squibb Company, priority 2021, published 2024).

The subject of experiment [1] is Ba/F3 parental cells. Briefly: Cellular proliferation in Ba/F3 parental (IL3-dependent) cells. Format: cell-based, murine. Conditions: Mus musculus, BaF3. The method, then:
(§1) Engineered lines expressing HER2YVMA and HER2 WT were prepared in HEK293 (human embryonic kidney cells), Ba/F3 (Interleukin 3 (IL3)-dependent murine pro B cell line), and BEAS2B (primary immortalized human bronchial epithelial cell line). Ba/F3, BEAS2B, and HEK293 cells were obtained from the American Type Culture Collection (ATCC, Manassas, VA). Parental Ba/F3 cells were grown in suspension in complete RPMI 1640 supplemented with 10% FBS and 1% P/S and 10 ng/ml interleukin 3 (IL3, Sigma-Aldrich). Hek293 and BEAS2B cells were grown as monolayers in DMEM supplemented with 10% FBS and 1% P/S. All cells were maintained and propagated in a humidified 5% CO2 incubator at 37° C.
(§2) Cell proliferation in non-adherent cells was investigated in Ba/F3 parental (IL3-dependent) and in the two IL3 independent cell clones tranduced to express mutant HER2 protein containing the YVMA insertion (Ba/F3 HER2YVMA). Cells were plated in DMEM supplemented with 10% FBS, 1% P/S, and 10 ng/ml IL3 (for parental Ba/F3 only) in 96-well white clear-bottom tissue culture plates (Costar, Sigma-Aldrich) at a starting cell density of 7500 cells. An 8-point standard curve with varying cell densities (starting at 100,000 cells and serially diluting down 2-fold) was prepared for each cell line and read after plating. Compound solutions were prepared in serum free media, and cells were treated as described above for adherent cells. Cell viability was determined by CellTiter Glo (Promega, Madison, WI) after 72 h. The results were converted to cell numbers using a standard curve; growth inhibition (GI50 values) were determined by Graph Pad Prism.
(§3) The results of these experiments show the ability of compounds to inhibit cell growth in HER2 dependent cell lines and a control cell line (Ba/F3 parental) are depicted in Table 4 in the columns titled “G150 (nM)”. Ba/F3 parental results fall under the heading “Ba/F3 parental-G150”, and Ba/F3 HER2YVMA fall under the heading “Ba/F3 YVMA-G150”.

Experiment [2] deals with Ba/F3 HER2YVMA cells. The experiment can be described thus: Cellular proliferation in Ba/F3 HER2YVMA cells. Format: cell-based, murine. Conditions: Mus musculus, BaF3, read-out: Ba/F3 YVMA GI50. The method, then: as §1
To generate Ba/F3, BEAS2B, and Hek-293 cells engineered with lentivirus to express HER2 WT or HER2YVMA, the cells were transduced with lentiviruses at multiplicity of infection (MOI) of 1 or 10; transduced cells were selected and maintained with G418 ([…]) (Geneticin, Life Technologies, Carlsbad, CA). Ba/F3 engineered cells were subjected to gradual withdrawal of interleukin 3 (IL-3, Sigma-Aldrich). After selection, IL3 independent Ba/F3 HER2YVMA, and BEAS2B HER2YVMA cells were cloned by limiting dilution. Hek293 HER2YVMA cells were used as pool. HER2 and phospho HER2 levels were confirmed by flow cytometery and immunoassay (MSD, Meso-Scale Discovery, Rockville, Maryland).
as §2, §3

The target in experiment [3] is T1, HER2 (Homo sapiens, UniProt P04626).
T1 construct: BT474 and N87 cell lines which endogenously overexpress the HER2 wildtype (WT) protein; endogenous in cells; host or cells: BT474, N87
Briefly: HER2 occupancy assay in N87 cells. Conditions: concentration at which 50% of HER2 is irreversible bound, read-out: N87 HER2 Occ. In kind it is cell-based. The method, then:
In order to assess free HER2 protein, a biotinylated probe was utilized. BT474, N87, and Ba/F3-HER2YVMA cells were treated with test compound as described for HER2 signaling. After compound treatment, cells were washed three times with cold phosphate buffer saline (PBS, Life Technologies, Carlsbad, CA), and lysed in modified occupancy lysis buffer prepared with an irreversible biotinylated tool compound (1 μM) in 25 mM Tris pH 7.5, 150 mM NaCl, 1% Triton, and supplemented with cOmplete, EDTA-free Protease inhibitor cocktail (Roche), Phosphatase Inhibitor Cocktails 2 and 3 (Sigma-Aldrich), and 1 mM PMSF (Sigma-Aldrich).
To determine % occupancy, lysates were loaded into duplicate plates of the phospho (Tyr1248)/total ErbB2 whole cell lysate MSD kit (Meso-Scale Discovery) and incubated overnight. Plates were washed and incubation with either HER2-sulfoTag (1:50, Meso Scale Discovery) or Strep-Sulfo Tag (1:1000, Meso Scale Discovery), for detection of […]. A standard curve of untreated cells in serial dilution was included in each plate to independently fit streptavidin (Free HER2) and total HER2 MSD signals; non-specific signal (BSA control spots) was subtracted from each well. Free HER2 was then normalized by total HER2 for each sample. The results are reported as % DMSO control. The normalized data was fitted using a sigmoidal curve analysis program (Graph Pad Prism version 6) with variable Hill slope to determine EC50 values. The results are provided in Table 4, under columns titled “BT474-HER2 Occ”, “N87-HER2 Occ”, and “Ba/F3 YVMA-HER2 Occ”. HER2 Occ is the concentration of test compound at which 50% of HER2 is irreversible bound.

Experiment [4] concerns the target EGFR (Homo sapiens, UniProt P00533). The experiment can be described thus: EGFR occupancy in N87 cells. Format: cell-based. The arrangement: endogenous in cells; host or cells: N87. As to the method:
In order to assess free EGFR protein, a biotinylated probe was utilized as described for HER2 occupancy. N87 cells were plated, treated, and lysed as described for HER2 occupancy method. After treatment, the cells were washed three times with cold PBS, lysed at room temperature for 1 hr in modified occupancy lysis buffer (prepared as described in section titled “HER2 Occupancy Assay”). Lysates were stored at −70° C. until further analysis. For determination of % occupancy, lysates were loaded into duplicate plates of the phospho (Tyr 1068)/total EGFR whole cell lysate kit (Meso-Scale Discovery) and incubated overnight. Plates were washed and incubated with either EGFR-sulfoTag (1:50, Meso Scale Discovery) or Strep-Sulfo Tag (1:1000, Meso Scale Discovery), for detection of free and total EGFR, respectively. BSA control spots included in MSD plates were used to subtract non-specific signal. A standard curve of untreated cells in serial dilution was included in each plate to convert streptavidin and total EGFR MSD signals into free EGFR and total EGFR. Free EGFR was normalized to total EGFR for each sample. Data, reported as % […] control, was fitted using a sigmoidal curve analysis program (Graph Pad Prism version 6) with variable Hill slope to determine EC50 values. The results are provided in Table 4, under column titled “N87-EGFR Occ”. EGFR Occ is the concentration of test compound at which 50% of EGFR is irreversible bound.

Setting [5] is: N87 cells, concentration at which 50% of EGFR is irreversible bound, read-out: N87 EGFR Occ.

Molecules are shown by their SMILES. Structures can show the parent of a compound that is named as a salt. Where two headings read alike, the source gives them in different places.

Chain of EGFR (P00533 25-1210): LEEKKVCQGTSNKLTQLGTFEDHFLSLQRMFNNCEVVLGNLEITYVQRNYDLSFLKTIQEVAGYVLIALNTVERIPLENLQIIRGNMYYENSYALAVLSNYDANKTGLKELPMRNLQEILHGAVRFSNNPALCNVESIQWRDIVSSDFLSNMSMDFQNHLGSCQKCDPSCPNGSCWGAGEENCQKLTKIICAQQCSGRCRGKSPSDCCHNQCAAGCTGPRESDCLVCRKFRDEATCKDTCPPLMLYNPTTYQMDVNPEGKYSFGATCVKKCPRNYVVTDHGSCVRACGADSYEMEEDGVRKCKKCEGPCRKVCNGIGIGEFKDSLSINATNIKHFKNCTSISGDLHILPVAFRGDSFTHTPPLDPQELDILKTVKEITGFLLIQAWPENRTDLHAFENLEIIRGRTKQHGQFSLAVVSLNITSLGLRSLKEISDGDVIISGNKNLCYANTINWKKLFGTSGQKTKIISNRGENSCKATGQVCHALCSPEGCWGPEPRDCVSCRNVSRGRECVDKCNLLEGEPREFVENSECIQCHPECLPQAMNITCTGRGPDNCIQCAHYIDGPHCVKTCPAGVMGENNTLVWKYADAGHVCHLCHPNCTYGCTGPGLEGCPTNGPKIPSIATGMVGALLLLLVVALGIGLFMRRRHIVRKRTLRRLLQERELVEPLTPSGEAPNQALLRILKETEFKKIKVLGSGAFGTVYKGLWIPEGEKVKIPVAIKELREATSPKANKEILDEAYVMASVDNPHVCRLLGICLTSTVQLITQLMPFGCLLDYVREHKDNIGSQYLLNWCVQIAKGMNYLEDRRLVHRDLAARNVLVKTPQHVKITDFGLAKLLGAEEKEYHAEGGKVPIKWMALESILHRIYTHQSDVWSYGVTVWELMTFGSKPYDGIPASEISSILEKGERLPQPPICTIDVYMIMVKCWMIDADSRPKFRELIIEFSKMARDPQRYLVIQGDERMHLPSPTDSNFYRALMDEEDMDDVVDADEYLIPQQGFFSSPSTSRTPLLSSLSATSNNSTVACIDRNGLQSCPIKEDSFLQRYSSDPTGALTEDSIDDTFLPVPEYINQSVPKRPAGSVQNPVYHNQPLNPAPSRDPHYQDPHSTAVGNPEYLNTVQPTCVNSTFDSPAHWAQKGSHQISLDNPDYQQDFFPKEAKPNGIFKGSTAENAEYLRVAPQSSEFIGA
T1 sequence (P04626 23-1255): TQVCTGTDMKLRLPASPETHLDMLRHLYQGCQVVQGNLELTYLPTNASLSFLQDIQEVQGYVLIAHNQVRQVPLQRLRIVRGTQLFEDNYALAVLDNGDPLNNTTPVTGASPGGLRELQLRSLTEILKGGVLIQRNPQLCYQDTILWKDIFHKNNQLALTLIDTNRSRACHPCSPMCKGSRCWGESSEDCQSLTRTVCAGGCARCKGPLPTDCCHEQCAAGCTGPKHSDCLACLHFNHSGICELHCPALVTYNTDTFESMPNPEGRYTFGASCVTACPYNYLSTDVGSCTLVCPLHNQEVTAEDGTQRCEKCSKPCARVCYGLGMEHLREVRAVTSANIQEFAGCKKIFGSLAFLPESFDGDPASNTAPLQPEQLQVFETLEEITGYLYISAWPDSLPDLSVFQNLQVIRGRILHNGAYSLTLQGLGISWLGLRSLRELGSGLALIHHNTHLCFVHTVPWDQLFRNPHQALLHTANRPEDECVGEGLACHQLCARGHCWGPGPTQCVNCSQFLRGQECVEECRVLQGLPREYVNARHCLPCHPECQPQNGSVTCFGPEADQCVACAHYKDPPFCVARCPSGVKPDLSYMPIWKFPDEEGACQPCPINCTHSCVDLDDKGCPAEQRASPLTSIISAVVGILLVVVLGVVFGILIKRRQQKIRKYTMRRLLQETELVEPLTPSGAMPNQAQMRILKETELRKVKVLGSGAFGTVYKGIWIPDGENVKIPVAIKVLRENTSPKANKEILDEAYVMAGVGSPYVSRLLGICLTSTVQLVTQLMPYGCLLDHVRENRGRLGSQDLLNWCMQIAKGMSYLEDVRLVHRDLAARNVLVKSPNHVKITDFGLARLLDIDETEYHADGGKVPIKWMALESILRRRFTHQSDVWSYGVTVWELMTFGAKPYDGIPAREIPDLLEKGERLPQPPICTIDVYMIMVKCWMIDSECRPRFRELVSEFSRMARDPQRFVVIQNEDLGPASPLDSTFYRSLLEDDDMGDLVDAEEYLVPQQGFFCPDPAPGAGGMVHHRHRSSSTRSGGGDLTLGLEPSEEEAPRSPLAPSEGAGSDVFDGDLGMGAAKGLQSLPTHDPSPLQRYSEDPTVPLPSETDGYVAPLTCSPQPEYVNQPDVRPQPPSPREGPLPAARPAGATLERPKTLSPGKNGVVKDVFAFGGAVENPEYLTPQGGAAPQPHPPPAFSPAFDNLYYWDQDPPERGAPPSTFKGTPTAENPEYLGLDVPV

Take `Cc1ccc(Oc2ccc(Nc3ncnc4sc5c(c34)CCN(C(=O)/C=C/CN3CC[C@H](F)C3)C5)cc2C)cn1` [Compound 124]: the GI50 was 1000 to 10000 nM in experiment [1] and less than 100 nM in experiment [2].
For the molecule `Cc1ccc(Oc2ccc(Nc3ncnc4sc5c(c34)CCN(C(=O)/C=C/CN3CC4CC(C3)O4)C5)cc2C)cn1` [Compound 15], the EC50 in experiment [3] and in experiment [4] (setting [5]) was less than 100 nM throughout.
For the molecule `Cc1ccc(Oc2ccc(Nc3ncnc4sc5c(c34)CCN(C(=O)/C=C/CN3CC4CCC3C4)C5)cc2C)cn1` (stereo not shown) [Compound 14], the EC50 in experiment [3] and in experiment [4] (setting [5]) was less than 100 nM throughout.
On to `Cc1ccc(Oc2ccc(Nc3ncnc4sc5c(c34)CCN(C(=O)/C=C/CN3CCOCC3)C5)cc2C)cn1` [Compound 17, (E)-1-(4-((3-Methyl-4-((6-methylpyridin-3-yl)oxy)phenyl)amino)-5,6-dihydropyrido[4′,3′:4,5]thieno[2,3-d]pyrimidin-7(8H)-yl)-4-morpholinobut-2-en-1-one], for which the EC50 in experiment [3] was less than 100 nM; in experiment [4] (setting [5]) it was 100 to 350 nM.
Consider `COc1ccc(Oc2ccc(Nc3ncnc4sc5c(c34)CN(C(=O)/C=C/CN(C)C)C5)cc2C)cn1` [Compound 128, (E)-4-(dimethylamino)-1-(4-((4-((6-methoxypyridin-3-yl)oxy)-3-methylphenyl)amino)-5,7-dihydro-6H-pyrrolo[3′,4′:4,5]thieno[2,3-d]pyrimidin-6-yl)but-2-en-1-one], for which the GI50 in experiment [1] is 1000 to 10000 nM; in experiment [2], less than 100 nM. The EC50 in experiment [3] is less than 100 nM; in experiment [4] (setting [5]), more than 1000 nM.
Consider `Cc1ccc(Oc2ccc(Nc3ncnc4sc5c(c34)CN(C(=O)/C=C/CN(C)C)CC5)cc2C)cn1` [Compound 108, (E)-4-(Dimethylamino)-1-(4-((3-methyl-4-((6-methylpyridin-3-yl)oxy)phenyl)amino)-7,8-dihydropyrido[3′,4′:4,5]thieno[2,3-d]pyrimidin-6(5H)-yl)but-2-en-1-one], for which the figures for the GI50 in experiment [1] and in experiment [2] were 1000 to 10000 nM and less than 100 nM, respectively.
In the case of `Cc1ccc(Oc2ccc(Nc3ncnc4sc5c(c34)CCN(C(=O)/C=C/CN(C)C)C5)cc2C)cn1` [Compound 8, (E)-4-(Dimethylamino)-1-(4-((3-methyl-4-((6-methylpyridin-3-yl)oxy)phenyl)amino)-5,6-dihydropyrido[4′,3′:4,5]thieno[2,3-d]pyrimidin-7(8H)-yl)but-2-en-1-one], the GI50 in experiment [1] was 1000 to 10000 nM; in experiment [2] it was less than 100 nM. Besides, the EC50 in experiment [3] and in experiment [4] (setting [5]) was less than 100 nM in each case.
In the case of `Cc1ccc(Oc2ccc(Nc3ncnc4sc5c(c34)CN(C(=O)/C=C/CN(C)C)C5)cc2Cl)cn1` [Compound 129, (E)-1-(4-((3-Chloro-4-((6-methylpyridin-3-yl)oxy)phenyl)amino)-5H-pyrrolo[3′,4′:4,5]thieno[2,3-d]pyrimidin-6(7H)-yl)-4-(dimethylamino)but-2-en-1-one], the EC50 was less than 100 nM in experiment [3] and 100 to 350 nM in experiment [4] (setting [5]). In addition, in experiment [2], the GI50 was less than 100 nM.
As for `Cc1ccc(Oc2ccc(Nc3ncnc4sc5c(c34)CCN(C(=O)/C=C/CN3CC4CCC(C4)C3)C5)cc2C)cn1` [Compound 16, (E)-4-(3-azabicyclo[3.2.1]octan-3-yl)-1-(4-((3-methyl-4-((6-methylpyridin-3-yl)oxy)phenyl)amino)-5,8-dihydropyrido[4′,3′:4,5]thieno[2,3-d]pyrimidin-7(6H)-yl)but-2-en-1-one benzenesulfonate salt], the results for the EC50 in experiment [3] and in experiment [4] were less than 100 nM and 100 to 350 nM, respectively.
Take `Cc1nc2cc(Oc3ccc(Nc4ncnc5sc6c(c45)CCN(C(=O)/C=C/CN(C)C)C6)cc3C)ccn2n1` [Compound 127, (E)-4-(dimethylamino)-1-(4-((3-methyl-4-((2-methyl-[1,2,4]triazolo[1,5-a]pyridin-7-yl)oxy)phenyl)amino)-5,6-dihydropyrido[4′,3′:4,5]thieno[2,3-d]pyrimidin-7(8H)-yl)but-2-en-1-one]: the GI50 in experiment [1] lay in the range of 1000 to 10000 nM; in experiment [2], 100 to 1000 nM.
In the same order, the values of `Cc1cc(Nc2ncnc3sc4c(c23)CCN(C(=O)/C=C/CN(C)C)C4)ccc1Oc1ccn2ccnc2c1` [Compound 126, (E)-4-(dimethylamino)-1-(4-((4-(imidazo[1,2-a]pyridin-7-yloxy)-3-methylphenyl)amino)-5,8-dihydropyrido[4′,3′:4,5]thieno[2,3-d]pyrimidin-7(6H)-yl)but-2-en-1-one] are 1000 to 10000 nM and less than 100 nM.
In the same order, the values of `Cc1cc(Nc2ncnc3sc4c(c23)CN(C(=O)/C=C/CN(C)C)C4)ccc1Oc1ccn2ncnc2c1` [Compound 130, (E)-1-(4-((4-([1,2,4]Triazolo[1,5-a]pyridin-7-yloxy)-3-methylphenyl)amino)-5H-pyrrolo[3′,4′:4,5]thieno[2,3-d]pyrimidin-6(7H)-yl)-4-(dimethylamino)but-2-en-1-one] are 1000 to 10000 nM and less than 100 nM.
Turning to `Cc1cc(Nc2ncnc3sc4c(c23)CCN(C(=O)/C=C/CN2CCOCC2)C4)ccc1Oc1ccc2ncnn2c1` [Compound 12], the EC50 in experiment [3] is less than 100 nM; in experiment [4] (setting [5]), more than 1000 nM.
